Measured values as given in publication PMC3723632, “A Multi-targeted Drug Candidate with Dual Anti-HIV and Anti-HSV Activity” (PLoS Pathogens, 2013).
≈ marks a conversion by molar mass, not a printed value. Like-named read-outs stand apart in the source and are kept apart here.

Key:
CCR5 = assay: Flow cytometry of CCR5 expression on PBMC; assay type: cell-based, human; conditions: for decrease of CCR5 expression on the cell surface / CCR5 decrease: 24 h; for CCR5 expression, % of control: 72 h
Experimental: Figure 9 Expression of CC-chemokines, CCR5 and chemokine mRNA expression in PBMC cultures after drug treatment. Panel A: Production of CC-chemokines by PBMC and the effects of adefovir, tenofovir, and PMEO-DAPym on the expression of the CCR5 receptor. Freshly isolated PBMCs from four healthy donors were incubated for 24 h with medium only (NC) or with adefovir, tenofovir, or PMEO-DAPym. We collected the supernatants and measured the concentrations of MIP-1α (▪), MIP-1β (▴), and RANTES (•) using a Bioplex system (Bio-Rad, Hercules, CA). Shown are means ± SEM. The cells were also collected, and the expression of the CCR5 receptor (□) was measured with flow cytometry using the PE-labeled CCR5 (clone 2D7) mAb; it is shown as percentage of control (± SEM) from four independent representative experiments. Panel B: Chemokine mRNA expression upon PMEO-DAPym exposure to PBMC. RT-PCR analysis of MIP-1α, MIP-1β, RANTES, and GAPDH (control) expression in PBMC treated with 100-µg/ml PMEO-DAPym for 4 h. Similar results were obtained with PBMC from three different donors. Results from one representative donor are shown.
Figure 11 Expression of the HIV-1 coreceptor CCR5 on PBMCs after treatment with adefovir, tenofovir, or PMEO-DAPym. We treated PBMC with the drugs for 24 h and collected and analyzed the cells using flow cytometry. Cell surface expression of CD4 and the chemokine receptor CCR5 were measured with the fluorescein isothiocyanate-labeled CD4 specific mAb (clone SK3) and the phycoerythrin-labeled CCR5 (clone 2D7). The percentages of positive cells in each quadrant of the dot plots are given. The data shown are from one representative experiment that was independently repeated at least four times. TEXT PRINTED IN THE PICTURE: adefovir: 54% (500 μg/ml); 7% (500 μg/ml); 6% (500 μg/ml) | tenofovir: 50% (500 μg/ml); 6% (500 μg/ml); 5% (500 μg/ml) | PMEO-DAPym: 54% (500 μg/ml); 1% (500 μg/ml); 2% (500 μg/ml); 55% (100 μg/ml); 1% (100 μg/ml); 2% (100 μg/ml); 54% (20 μg/ml); 3% (20 μg/ml); 3% (20 μg/ml) DOUBTS OF THE COPYIST ABOUT THIS PICTURE: The percentages are quadrant labels in dot plots (axes: CD4 expression, CCR5 expression). No measure is printed beside them. For each plot they are listed in the order upper left, upper right, lower right. / The Control plot (51%, 8%, 6%) is left out because it is not a substance.
PBMC were cultured in the presence of adefovir, tenofovir, and PMEO-DAPym and incubated at 37°C in a humidified, 5% CO2-controlled atmosphere. The expression of cellular activation markers was measured after 3 days of culture. Briefly, after washing the cells with PBS containing 2% FCS, we incubated them with PerCP-conjugated anti-CD4 mAb (clone SK3) in combination with PE-conjugated anti-CD25, anti-CD69, or anti-HLA-DR mAbs for 30 min at room temperature. For aspecific background staining, cells were stained in parallel with Simultest Control IgG γ1/γ2a and PerCP-conjugated mouse IgG1. Finally, the cells were washed with PBS, fixed with 1% formaldehyde solution, and analyzed with a FACSCalibur (BD Biosciences, San Jose, CA); data were acquired with CellQuest software and further analyzed with the FLOWJO software (Tree Star, San Carlos, CA). […], and PBMC were incubated with PerCP-conjugated anti-CD4 mAb (clone SK3) in combination with APC-conjugated anti-CXCR4 mAb (clone 12G5) and PE-conjugated anti-CCR5 (clone 2D7) or anti-CXCR3 (clone 1C6). To evaluate the biological effects of the β-chemokines produced by drug-treated PBMC, freshly isolated PBMC were incubated for 1 h at 37°C with supernatants collected from PBMC cultures treated with compounds for 24 h. Then, cells were incubated with PerCP-conjugated anti-CD4 mAb (clone SK3) in combination with PE-conjugated anti-CCR5 mAb (clone 2D7) for 30 min at room temperature. […]

HSV-2 (G) = assay: HSV-2 infection of primary monocyte/macrophage (M/M) cultures; assay type: cell-based
HSV-1 and HSV-2 strains = assay: HSV cytopathicity assay in HEL cell cultures, HSV-1 and HSV-2 stated together; assay type: cell-based
Experimental: Figure 2 Antiherpetic activity of test compounds in cell culture. Confluent HEL cell cultures were exposed to 100 TCID50 of clinical virus isolates [wild-type HSV-1 (panel A), wild-type HSV-2 (panel B), TK^− HSV-1 (panel C) and TK^− HSV-2 (panel D)] in the presence of drugs at different concentrations and incubated for 3 days at 37°C. Then, the cytopathicity was determined microscopically and the EC50 values determined. ^aEC50, 50% effective concentration or compound concentration required to reduce virus-induced cytopathicity (CPE) by 50%. Data shown are the means of at least two independent experiments. The HSV-1, HSV-2, HSV-1 TK^−, and HSV-2 TK^− clinical isolates have been described in reference 19, including the nature of the mutations in the TK gene of the acyclovir-resistant virus strains.

[1] = thirteen clinical wild-type HSV-1 and HSV-2 isolates, read-out: average EC50
[2] = wild-type laboratory HSV-1 and HSV-2 strains, range, read-out: EC50

SMILES | decrease of CCR5 expression on the cell surface (CCR5; 20 µg/ml) | decrease of CCR5 expression on the cell surface (CCR5; 100 µg/ml) | decrease of CCR5 expression on the cell surface (CCR5; 500 µg/ml) | CCR5 expression, % of control (CCR5; 20 µg/ml) | CCR5 expression, % of control (CCR5; 100 µg/ml) | CCR5 expression, % of control (CCR5; 500 µg/ml) | Cytopathicity (CPE) on macrophages 6 days after infection % CPE (HSV-2 (G); 0.0032 µg/ml) | Cytopathicity (CPE) on macrophages 6 days after infection % CPE (HSV-2 (G); 0.4 µg/ml) | Cytopathicity (CPE) on macrophages 6 days after infection % CPE (HSV-2 (G); 2 µg/ml) | EC50 (HSV-1 and HSV-2 strains; TK− HSV isolates, read-out: average EC50) | EC50 (HSV-1 and HSV-2 strains; [1]) | EC50 (HSV-1 and HSV-2 strains; [2]) | CCR5 decrease (CCR5)
Nc1cc(OCCOCP(=O)(O)O)nc(N)n1 [PMEO-DAPym, 6-phosphonylmethoxyethoxy-2,4-diaminopyrimidine] | 60% | ≥ 75% | ≥ 75% | 60% | 38% | 10% | 85% | 35% | 0–15% | 2.4 µg/mL (≈ 9.08 µM) | ~2 µg/mL (≈ 7.57 µM) | 2.6 to 6.3 µg/mL (≈ 9.84 to 23.8 µM) | 
Nc1ncnc2c1ncn2CCOCP(=O)(O)O [Adefovir, 9-(2-phosphonylmethoxyethyl)adenine] |  |  |  |  |  |  | 80% | 30% | 0–5% |  | ~6 µg/mL (≈ 22 µM) | 2.6 to 6.3 µg/mL (≈ 9.52 to 23.1 µM) | Neither adefovir nor tenofovir induced a marked CCR5 decrease
C[C@H](Cn1cnc2c(N)ncnc21)OCP(=O)(O)O [Tenofovir, 9-(2-phosphonylmethoxypropyl)adenine] |  |  |  |  |  |  | 85% | 40% | 30% |  | ~130 µg/mL (≈ 453 µM) | 105 to 122 µg/mL (≈ 366 to 425 µM) | Neither adefovir nor tenofovir induced a marked CCR5 decrease
